A word on the inhibition: it is the percentage by which the read-out fell short of the control. Lower therefore signals little suppression.

Among the data in ChEMBL document CHEMBL5154740, “Novel Aurora A and Protein Kinase C (α, β1, β2, and θ) Multitarget Inhibitors: Impact of Selenium Atoms on the Potency and Selectivity” (J Med Chem, 2022) are inhibition values, retold here.

In test [1] the target is Tyrosine-protein kinase ABL1 (Homo sapiens) (UniProt P00519). The test can be described thus: Inhibition of ABL1 (unknown origin) at 50 nM by Z'LYTE screening method relative to control.
The target in test [2] is T1, Aurora kinase A (Homo sapiens) (UniProt O14965).
T1 sequence (whole entry): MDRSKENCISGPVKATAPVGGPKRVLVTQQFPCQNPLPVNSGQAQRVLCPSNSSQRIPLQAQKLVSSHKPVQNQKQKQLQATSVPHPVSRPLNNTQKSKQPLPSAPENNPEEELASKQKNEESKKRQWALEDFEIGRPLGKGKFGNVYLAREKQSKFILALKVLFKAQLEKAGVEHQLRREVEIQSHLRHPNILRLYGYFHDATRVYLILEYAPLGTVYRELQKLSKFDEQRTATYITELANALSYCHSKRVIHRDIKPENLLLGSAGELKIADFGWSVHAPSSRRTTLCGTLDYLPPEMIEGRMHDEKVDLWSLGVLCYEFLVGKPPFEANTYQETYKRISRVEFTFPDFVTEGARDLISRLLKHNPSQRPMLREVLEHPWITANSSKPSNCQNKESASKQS
In words: Inhibition of AURA (unknown origin) at 50 nM by Z'LYTE screening method relative to control.

In test [3] the target is T2, Aurora kinase C (Homo sapiens) (UniProt Q9UQB9).
T2 sequence (whole entry): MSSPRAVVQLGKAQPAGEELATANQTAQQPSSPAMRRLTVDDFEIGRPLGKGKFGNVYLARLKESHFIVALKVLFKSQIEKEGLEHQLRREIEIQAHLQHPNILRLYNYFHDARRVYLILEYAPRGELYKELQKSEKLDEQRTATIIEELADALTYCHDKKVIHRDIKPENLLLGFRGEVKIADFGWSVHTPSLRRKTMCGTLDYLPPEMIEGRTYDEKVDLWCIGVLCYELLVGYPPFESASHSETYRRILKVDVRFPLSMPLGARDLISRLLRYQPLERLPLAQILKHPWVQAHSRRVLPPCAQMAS
In words: Inhibition of AURC (unknown origin) at 50 nM by Z'LYTE screening method relative to control.

The target in test [4] is Cell division control protein 42 homolog (Homo sapiens) (UniProt P60953). In words: Inhibition of CDC42 delta (unknown origin) at 50 nM by Z'LYTE screening method relative to control.
Test [5] addresses Receptor tyrosine-protein kinase erbB-2 (Homo sapiens) (UniProt P04626). The test can be described thus: Inhibition of ERBB2 (unknown origin) at 50 nM by Z'LYTE screening method relative to control.
The target of test [6] is Fibroblast growth factor receptor 1 (Homo sapiens) (UniProt P11362). The test can be described thus: Inhibition of FGFR1 (unknown origin) at 50 nM by Z'LYTE screening method relative to control.
Test [7] deals with Vascular endothelial growth factor receptor 1 (Homo sapiens) (UniProt P17948). In words: Inhibition of FLT1/VEGFR1(unknown origin) at 50 nM by Z'LYTE screening method relative to control.
The target in test [8] is Dual specificity mitogen-activated protein kinase kinase 1 (Homo sapiens) (UniProt Q02750). The test can be described thus: Inhibition of MAP2K1 (unknown origin) at 50 nM by Z'LYTE screening method relative to control.
Test [9] has as its target Mitogen-activated protein kinase 1 (Homo sapiens) (UniProt P28482). In words: Inhibition of MAPK1 (unknown origin) at 50 nM by Z'LYTE screening method relative to control.
For test [10], the target named is Serine/threonine-protein kinase PAK 1 (Homo sapiens) (UniProt Q13153). In words: Inhibition of PAK1 (unknown origin) at 50 nM by Z'LYTE screening method relative to control.
Test [11] concerns the target Protein kinase C alpha type (Homo sapiens) (UniProt P17252). The test can be described thus: Inhibition of PKCalpha (unknown origin) at 50 nM by Z'LYTE screening method relative to control.
For test [12], the target named is Protein kinase C eta type (Homo sapiens, UniProt P24723). The test can be described thus: Inhibition of PKCeta (unknown origin) at 50 nM by Z'LYTE screening method relative to control.
The target in test [13] is Protein kinase C theta type (Homo sapiens, UniProt Q04759). In words: Inhibition of PKCtheta (unknown origin) at 50 nM by Z'LYTE screening method relative to control.
Test [14] concerns the target T3, Protein kinase C zeta type (Homo sapiens) (UniProt Q05513).
T3 sequence (whole entry): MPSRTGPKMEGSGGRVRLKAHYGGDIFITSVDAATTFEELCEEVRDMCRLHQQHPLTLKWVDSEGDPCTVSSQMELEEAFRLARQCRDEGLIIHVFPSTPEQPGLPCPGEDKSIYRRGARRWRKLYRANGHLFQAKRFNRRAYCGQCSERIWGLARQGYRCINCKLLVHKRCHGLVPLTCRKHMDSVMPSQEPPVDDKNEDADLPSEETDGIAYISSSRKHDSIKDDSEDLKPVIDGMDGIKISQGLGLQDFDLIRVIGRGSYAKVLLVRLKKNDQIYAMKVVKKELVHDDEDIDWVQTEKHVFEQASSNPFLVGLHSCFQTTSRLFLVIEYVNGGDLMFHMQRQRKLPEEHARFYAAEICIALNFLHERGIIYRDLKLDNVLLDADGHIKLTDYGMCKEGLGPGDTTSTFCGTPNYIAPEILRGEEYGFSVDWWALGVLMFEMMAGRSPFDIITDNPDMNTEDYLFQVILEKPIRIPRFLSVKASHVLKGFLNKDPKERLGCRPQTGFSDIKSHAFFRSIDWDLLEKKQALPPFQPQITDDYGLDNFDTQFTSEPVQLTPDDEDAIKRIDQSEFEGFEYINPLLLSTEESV
In words: Inhibition of PKCzeta (unknown origin) at 50 nM by Z'LYTE screening method relative to control.

In test [15] the target is PI3-kinase p110-alpha/p85-alpha (Homo sapiens) (UniProt P27986+P42336). In words: Inhibition of p110alpha/p85alpha (unknown origin) at 50 nM by Z'LYTE screening method relative to control. Type of test: protein-complex assay.
The target in test [16] is Focal adhesion kinase 1 (Homo sapiens) (UniProt Q05397). The test can be described thus: Inhibition of FAK (unknown origin) at 50 nM by Z'LYTE screening method relative to control.
In test [17] the target is Proto-oncogene tyrosine-protein kinase receptor Ret (Homo sapiens) (UniProt P07949). In words: Inhibition of RET (unknown origin) at 50 nM by Z'LYTE screening method relative to control.
Test [18] deals with Ribosomal protein S6 kinase beta-1 (Homo sapiens) (UniProt P23443). In words: Inhibition of p70S6K (unknown origin) at 50 nM by Z'LYTE screening method relative to control.

Sequence of Focal adhesion kinase 1 (Homo sapiens) (Q05397 2-1052 limits assumed): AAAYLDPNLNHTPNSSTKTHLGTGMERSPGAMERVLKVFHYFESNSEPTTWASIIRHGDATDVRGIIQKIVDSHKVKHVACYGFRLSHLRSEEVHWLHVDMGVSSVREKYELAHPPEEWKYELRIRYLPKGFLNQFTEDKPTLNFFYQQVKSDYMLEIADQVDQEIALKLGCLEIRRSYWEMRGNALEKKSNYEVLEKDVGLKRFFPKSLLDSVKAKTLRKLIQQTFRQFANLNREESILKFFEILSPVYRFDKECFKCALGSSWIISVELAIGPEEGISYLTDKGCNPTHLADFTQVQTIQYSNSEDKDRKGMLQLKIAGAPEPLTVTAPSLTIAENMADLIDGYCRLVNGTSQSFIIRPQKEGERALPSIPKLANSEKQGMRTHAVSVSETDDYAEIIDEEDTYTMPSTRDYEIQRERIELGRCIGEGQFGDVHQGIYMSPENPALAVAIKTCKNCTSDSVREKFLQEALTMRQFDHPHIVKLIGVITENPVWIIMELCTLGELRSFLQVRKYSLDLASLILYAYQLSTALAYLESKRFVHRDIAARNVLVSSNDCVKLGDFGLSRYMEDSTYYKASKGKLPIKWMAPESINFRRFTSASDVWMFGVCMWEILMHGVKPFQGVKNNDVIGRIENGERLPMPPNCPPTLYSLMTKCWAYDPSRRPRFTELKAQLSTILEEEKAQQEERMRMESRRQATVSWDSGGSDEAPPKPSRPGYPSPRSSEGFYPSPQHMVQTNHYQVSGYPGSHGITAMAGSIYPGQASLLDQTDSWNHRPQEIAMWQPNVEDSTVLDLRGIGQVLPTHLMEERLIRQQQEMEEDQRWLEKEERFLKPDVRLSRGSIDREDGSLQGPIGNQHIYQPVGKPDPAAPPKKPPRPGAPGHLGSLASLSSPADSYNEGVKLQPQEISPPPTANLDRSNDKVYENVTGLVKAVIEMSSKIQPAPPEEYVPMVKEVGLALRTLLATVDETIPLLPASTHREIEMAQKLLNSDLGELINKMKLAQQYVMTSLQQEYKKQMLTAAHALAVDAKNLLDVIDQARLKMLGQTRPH
Sequence of Proto-oncogene tyrosine-protein kinase receptor Ret (Homo sapiens) (P07949 whole entry): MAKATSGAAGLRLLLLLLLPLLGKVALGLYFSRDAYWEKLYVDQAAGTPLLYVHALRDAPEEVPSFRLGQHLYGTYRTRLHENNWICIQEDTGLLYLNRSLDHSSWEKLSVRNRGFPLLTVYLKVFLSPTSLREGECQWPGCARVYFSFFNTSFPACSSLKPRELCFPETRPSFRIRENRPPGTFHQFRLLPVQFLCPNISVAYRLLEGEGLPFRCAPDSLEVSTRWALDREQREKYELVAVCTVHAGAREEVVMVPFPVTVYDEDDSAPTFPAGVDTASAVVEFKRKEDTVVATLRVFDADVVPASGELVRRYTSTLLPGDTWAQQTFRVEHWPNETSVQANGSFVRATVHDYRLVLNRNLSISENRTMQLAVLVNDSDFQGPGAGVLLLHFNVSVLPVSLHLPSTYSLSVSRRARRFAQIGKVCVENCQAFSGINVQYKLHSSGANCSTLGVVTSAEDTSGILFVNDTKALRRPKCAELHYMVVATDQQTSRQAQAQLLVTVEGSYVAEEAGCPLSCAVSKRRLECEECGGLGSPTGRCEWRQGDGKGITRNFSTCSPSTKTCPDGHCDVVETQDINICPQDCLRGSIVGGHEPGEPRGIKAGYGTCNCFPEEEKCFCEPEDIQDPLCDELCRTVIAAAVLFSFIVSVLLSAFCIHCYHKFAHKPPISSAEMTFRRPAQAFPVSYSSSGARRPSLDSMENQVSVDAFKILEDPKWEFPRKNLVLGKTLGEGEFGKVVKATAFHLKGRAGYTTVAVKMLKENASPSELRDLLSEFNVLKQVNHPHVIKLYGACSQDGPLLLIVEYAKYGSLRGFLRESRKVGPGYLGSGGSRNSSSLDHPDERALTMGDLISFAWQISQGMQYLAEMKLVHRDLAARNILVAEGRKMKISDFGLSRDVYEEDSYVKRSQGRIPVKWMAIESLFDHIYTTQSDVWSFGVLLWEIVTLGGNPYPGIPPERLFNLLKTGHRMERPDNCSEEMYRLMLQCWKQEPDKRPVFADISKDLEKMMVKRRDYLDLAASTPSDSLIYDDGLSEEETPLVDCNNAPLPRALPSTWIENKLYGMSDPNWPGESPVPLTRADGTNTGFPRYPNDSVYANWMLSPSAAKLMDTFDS
Sequence of Cell division control protein 42 homolog (Homo sapiens) (P60953 whole entry, looked up): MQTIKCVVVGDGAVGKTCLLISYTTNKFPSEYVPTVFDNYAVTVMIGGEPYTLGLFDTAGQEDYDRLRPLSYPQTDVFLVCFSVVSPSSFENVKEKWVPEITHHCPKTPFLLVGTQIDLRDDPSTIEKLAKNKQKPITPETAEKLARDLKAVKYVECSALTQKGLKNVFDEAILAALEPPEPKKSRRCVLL
Sequence of Fibroblast growth factor receptor 1 (Homo sapiens) (P11362 22-822 limits assumed): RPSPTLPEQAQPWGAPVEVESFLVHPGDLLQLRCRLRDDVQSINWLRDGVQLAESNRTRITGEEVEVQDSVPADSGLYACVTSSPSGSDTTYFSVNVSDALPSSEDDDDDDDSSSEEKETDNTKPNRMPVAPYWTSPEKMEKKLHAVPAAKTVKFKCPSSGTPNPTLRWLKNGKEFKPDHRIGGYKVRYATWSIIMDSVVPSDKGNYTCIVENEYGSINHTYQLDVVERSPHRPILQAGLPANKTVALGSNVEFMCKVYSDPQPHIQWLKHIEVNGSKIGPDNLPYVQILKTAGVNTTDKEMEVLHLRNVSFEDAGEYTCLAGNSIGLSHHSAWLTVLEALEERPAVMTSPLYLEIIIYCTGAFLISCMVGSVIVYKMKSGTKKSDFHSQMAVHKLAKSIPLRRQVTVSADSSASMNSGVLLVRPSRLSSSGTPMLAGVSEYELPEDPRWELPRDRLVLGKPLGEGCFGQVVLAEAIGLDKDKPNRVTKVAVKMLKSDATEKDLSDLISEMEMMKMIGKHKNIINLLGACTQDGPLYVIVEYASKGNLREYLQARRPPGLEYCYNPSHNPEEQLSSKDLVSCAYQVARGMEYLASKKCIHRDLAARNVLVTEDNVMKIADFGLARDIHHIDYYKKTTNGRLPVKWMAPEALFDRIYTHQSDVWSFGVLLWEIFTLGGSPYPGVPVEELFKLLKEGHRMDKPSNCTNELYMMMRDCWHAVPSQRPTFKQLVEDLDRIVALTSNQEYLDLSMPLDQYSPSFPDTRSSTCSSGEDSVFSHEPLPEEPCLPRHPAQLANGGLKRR
Sequence of Dual specificity mitogen-activated protein kinase kinase 1 (Homo sapiens) (Q02750 whole entry): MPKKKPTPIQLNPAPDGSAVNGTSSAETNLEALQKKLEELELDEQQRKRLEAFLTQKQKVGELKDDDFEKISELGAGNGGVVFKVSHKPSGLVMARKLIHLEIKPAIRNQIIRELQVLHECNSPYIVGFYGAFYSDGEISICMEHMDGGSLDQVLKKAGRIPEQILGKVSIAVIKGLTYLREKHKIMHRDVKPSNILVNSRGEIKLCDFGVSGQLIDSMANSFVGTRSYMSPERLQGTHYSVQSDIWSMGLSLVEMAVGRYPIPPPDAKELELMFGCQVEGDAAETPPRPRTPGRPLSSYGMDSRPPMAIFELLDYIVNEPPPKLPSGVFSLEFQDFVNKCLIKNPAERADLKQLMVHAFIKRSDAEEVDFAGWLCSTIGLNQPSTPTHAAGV
Sequence of Protein kinase C theta type (Q04759 whole entry, looked up): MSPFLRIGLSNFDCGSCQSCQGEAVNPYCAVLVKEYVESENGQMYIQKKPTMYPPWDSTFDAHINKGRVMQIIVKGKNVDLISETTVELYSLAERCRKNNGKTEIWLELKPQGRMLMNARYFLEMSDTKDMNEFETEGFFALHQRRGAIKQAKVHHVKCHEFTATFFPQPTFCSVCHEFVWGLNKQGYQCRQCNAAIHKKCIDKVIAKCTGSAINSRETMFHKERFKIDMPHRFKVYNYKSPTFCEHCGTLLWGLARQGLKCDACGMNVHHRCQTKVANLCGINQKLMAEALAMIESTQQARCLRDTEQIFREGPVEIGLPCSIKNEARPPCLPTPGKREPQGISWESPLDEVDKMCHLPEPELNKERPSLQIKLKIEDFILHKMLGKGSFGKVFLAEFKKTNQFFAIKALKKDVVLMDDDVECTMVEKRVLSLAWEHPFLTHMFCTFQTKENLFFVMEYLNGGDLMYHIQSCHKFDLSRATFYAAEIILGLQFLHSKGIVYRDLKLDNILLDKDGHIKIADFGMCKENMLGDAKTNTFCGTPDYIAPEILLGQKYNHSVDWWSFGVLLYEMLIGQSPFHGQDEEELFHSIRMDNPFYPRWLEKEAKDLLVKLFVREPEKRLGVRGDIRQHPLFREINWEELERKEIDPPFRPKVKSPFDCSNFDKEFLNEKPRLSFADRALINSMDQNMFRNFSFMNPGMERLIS

Consider `CCN(CC)CCCC(C)Nc1nc(-n2[se]c3ccccc3c2=O)nc2[nH]cnc12` (stereo not given), for which the inhibition was 11% in test [1]; 9% in test [2]; 7% in [3]; 0% in test [4]; 1% in test [5]; 0% in test [6]. Further, the inhibition in test [7] came out at 1%; in [8], 3%; in test [9] it was 0%; in test [10], 14%; in test [11], 18%; in [12], 11%. Moreover, the inhibition in test [13] came to 83%; in test [14], 9%; in [15], 0%; in test [16] it was 4%; in test [17], 1%; in test [18] it was 0%.
With `CCN(CC)CCCC(C)Nc1nc(N2Cc3ccccc3C2=O)nc2[nH]cnc12` (stereo not given), the inhibition was determined as 1% in [1]; 3% in test [2]; 10% in test [3]; 0% in [4]; 0% in test [5]; 0% in test [6]. In addition, the inhibition in test [7] was found to be 2%; in test [8] it was 5%; in [9], 2%; in test [10], 2%; in [11], 3%; in [12] it was 2%. The inhibition was 12% in [13]; 7% in [14]; 0% in [15]; 0% in [16]; 2% in test [17]; 1% in test [18].
Regarding `O=C1c2ccccc2CN1c1nc(N[C@H]2CC[Se]C2)c2nc[nH]c2n1`, the inhibition in [1] worked out at 0%; in test [2], 9%; in test [3], 13%; in [4], 0%; in test [5], 1%; in [6], 0%. Also, the inhibition in [7] is 1%; in test [8], 3%; in test [9], 0%; in test [10], 0%; in test [11], 3%; in test [12], 3%. Besides, the inhibition amounted to 14% in [13]; 6% in test [14]; 0% in test [15]; 0% in test [16]; 2% in [17]; 2% in test [18].
Take `O=c1c2ccccc2[se]n1-c1nc(N[C@@H]2C[C@H]3CC[C@@H]2C3)c2nc[nH]c2n1`: the inhibition in [1] stood at 2%; in test [2], 4%; in test [3] it was 9%; in [4], 0%; in test [5], 0%; in [6], 0%. The inhibition in test [7] is 1%; in test [8], 2%; in [9], 0%; in test [10] it was 1%; in test [11], 8%; in test [12], 1%. For the same compound, the inhibition is 15% in test [13]; 7% in test [14]; 0% in test [15]; 0% in test [16]; 6% in [17]; 2% in [18].
In the case of `O=c1c2ccccc2[se]n1-c1nc(N[C@H]2CCOC2)c2nc[nH]c2n1`, the inhibition in [1] came to 8%; in test [2], 71%; in [3], 1%; in test [4] it was 0%; in test [5], 0%; in test [6], 0%. The inhibition in test [7] was determined as 0%; in [8], 2%; in test [9], 2%; in test [10], 0%; in test [11], 91%; in test [12], 3%. Besides, the inhibition stood at 85% in test [13]; 2% in test [14]; 0% in [15]; 0% in test [16]; 7% in test [17]; 6% in [18].
